Data as given in patent US20240150345A1, “GCN2 MODULATING COMPOUNDS AND USES THEREOF” (HiberCell, Inc., priority 2021, published 2024).

These molecules were tested against T1, GCN2 (Homo sapiens, UniProt Q9P2K8) (assay: TR-FRET biochemical assay for inhibition of GCN2 activity). Conditions: 2 nM GCN2, 100 nM GFP-eIF2α, 150 μM ATP, 1.5 hours at 25° C.
T1 construct: purchased Carma Biosciences (so in the source)
T1 sequence (Q9P2K8 whole entry): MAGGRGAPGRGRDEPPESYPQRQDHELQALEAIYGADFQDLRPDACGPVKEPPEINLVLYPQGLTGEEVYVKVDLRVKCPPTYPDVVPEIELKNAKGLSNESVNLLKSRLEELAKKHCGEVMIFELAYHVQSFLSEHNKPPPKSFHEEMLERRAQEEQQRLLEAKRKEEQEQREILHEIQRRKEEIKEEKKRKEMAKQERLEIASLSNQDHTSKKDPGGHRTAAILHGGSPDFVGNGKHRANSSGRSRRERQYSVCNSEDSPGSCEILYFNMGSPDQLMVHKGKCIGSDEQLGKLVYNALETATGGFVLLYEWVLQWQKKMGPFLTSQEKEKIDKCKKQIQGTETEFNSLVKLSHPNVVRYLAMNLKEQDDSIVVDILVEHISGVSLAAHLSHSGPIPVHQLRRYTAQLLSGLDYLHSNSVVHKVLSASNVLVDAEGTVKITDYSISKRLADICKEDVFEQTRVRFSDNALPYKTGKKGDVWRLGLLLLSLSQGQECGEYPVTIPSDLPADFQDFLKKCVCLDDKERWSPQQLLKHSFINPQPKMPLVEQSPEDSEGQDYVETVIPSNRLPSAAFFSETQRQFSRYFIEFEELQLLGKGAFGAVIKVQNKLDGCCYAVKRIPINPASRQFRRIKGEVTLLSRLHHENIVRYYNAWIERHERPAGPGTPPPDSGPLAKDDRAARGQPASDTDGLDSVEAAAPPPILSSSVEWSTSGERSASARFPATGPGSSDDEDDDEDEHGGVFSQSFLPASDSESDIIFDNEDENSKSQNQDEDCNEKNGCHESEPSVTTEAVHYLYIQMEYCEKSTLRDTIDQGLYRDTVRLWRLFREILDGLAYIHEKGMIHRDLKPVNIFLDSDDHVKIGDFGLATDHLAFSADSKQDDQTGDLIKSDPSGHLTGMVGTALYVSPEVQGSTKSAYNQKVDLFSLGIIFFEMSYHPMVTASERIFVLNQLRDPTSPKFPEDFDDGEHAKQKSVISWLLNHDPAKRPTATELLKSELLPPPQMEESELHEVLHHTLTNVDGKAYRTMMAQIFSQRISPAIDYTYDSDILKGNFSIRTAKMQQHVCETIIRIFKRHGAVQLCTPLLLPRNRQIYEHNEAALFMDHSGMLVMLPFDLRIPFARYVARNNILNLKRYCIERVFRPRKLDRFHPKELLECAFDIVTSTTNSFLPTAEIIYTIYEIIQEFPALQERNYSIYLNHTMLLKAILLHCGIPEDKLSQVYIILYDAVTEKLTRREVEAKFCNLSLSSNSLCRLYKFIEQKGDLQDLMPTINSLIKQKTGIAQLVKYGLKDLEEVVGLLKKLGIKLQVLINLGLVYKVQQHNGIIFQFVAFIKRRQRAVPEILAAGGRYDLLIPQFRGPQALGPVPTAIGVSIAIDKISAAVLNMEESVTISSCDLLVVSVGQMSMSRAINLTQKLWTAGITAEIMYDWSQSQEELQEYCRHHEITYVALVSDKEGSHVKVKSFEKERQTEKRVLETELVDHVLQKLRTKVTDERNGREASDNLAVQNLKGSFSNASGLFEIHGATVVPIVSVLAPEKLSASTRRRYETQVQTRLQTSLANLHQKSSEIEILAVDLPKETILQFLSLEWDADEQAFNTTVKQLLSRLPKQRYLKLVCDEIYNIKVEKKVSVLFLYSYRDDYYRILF
Procedure: Exemplary compounds from the above Examples were tested for ability to inhibit GCN2 activity using a time resolved fluorescence energy transfer (TR-FRET) assay. Assay procedures and results are described below for Examples 12-105.
GCN2 protein was obtained from Carma Biosciences (cat #05-153). The protein was diluted in assay buffer (ThermoFisher Scientific, #PV6135), 2 mM dithiothreitol (DTT), to obtain a final concentration of 2 nM and 5 μL was plated in a 384-well white assay plate. Test compounds were serially diluted to 11 concentrations by 3-fold dilution in DMS0 and 10 nL of stock was plated into 384 well white assay plate. DMS0 was used as a vehicle control. GFP-eIF2α protein was obtained from ThermoFisher (cat #PV4809). The protein was diluted in assay buffer to a 2× concentration of 200 nM along with 300 μM ATP (final concentration of 100 nM GFP-eIF2α and 150 μM ATP) in the presence of 2 mM DTT and a […] was added to each well containing the GCN2 protein and test compound. The plate was incubated in the dark at 25° C. for 1.5 hours, shaking at 1250 rpm. Tb-anti P-eIF2α (ThermoFisher cat #PV4815) was diluted to a to a concentration of 1 nM in TR-FRET Dilution Buffer (ThermoFisher cat #PV3574). 10 μL of the Tb-anti P-eIF2a solution was added to the TR-FRET reaction. The plate was incubated in the dark for 2 h at 25° C. shaking at 600 rpm. The FRET signal from the plate was read on a Envision (PerkinElmer) plate reader: • Label 1: Excitation: 340 nm, bandwidth 30 nm; Emission: 495 nm, bandwidth 10 nm. Lag time: 100 μsec. Integration time: 400 μsec. Flashes: 30. • Label 2: Excitation: 340 nm, bandwidth 30 nm; Emission: 520 nm, bandwidth 25 nm. Lag time: 100 μsec. Integration time: 400 μsec. Flashes: 30
The data were analyzed using GraphPad Prism employing a 4-parameter sigmoidal curve fit.
With `COc1ncc(Cl)cc1S(=O)(=O)Nc1ccc(F)c(COc2cnc3[nH]ncc3c2)c1F` [Compound 1, 5-chloro-N-[2,4-difluoro-3-([1H-pyrazolo[3,4-b]pyridin-5-yloxy]methyl)phenyl]-2-methoxypyridine-3-sulfonamide] the IC50 was < 50 nM. For `COc1ncc(F)cc1S(=O)(=O)Nc1ccc(F)c(COc2cnc3[nH]nc(C)c3c2)c1F` [Compound 2, N-[2,4-difluoro-3-[([3-methyl-1H-pyrazolo[3,4-b]pyridin-5-yl]oxy)methyl]phenyl]-5-fluoro-2-methoxypyridine-3-sulfonamide], the IC50 was < 50 nM. In the case of `COc1ncc(Cl)cc1S(=O)(=O)Nc1ccc(F)c(CNc2cnc3[nH]ncc3c2)c1F` [Compound 3, 5-chloro-N-[2,4-difluoro-3-([1H-pyrazolo[3,4-b]pyridin-5-ylamino]methyl)phenyl]-2-methoxypyridine-3-sulfonamide], the IC50 is reported as 50 to 500 nM. With `COc1ncc(Cl)cc1S(=O)(=O)Nc1ccc(F)c(OCc2cnc3[nH]ncc3c2)c1F` [Compound 4, 5-chloro-N-(2,4-difluoro-3-[1H-pyrazolo[3,4-b]pyridin-5-ylmethoxy]phenyl)-2-methoxypyridine-3-sulfonamide] the IC50 was < 50 nM. With `COc1ncc(Cl)cc1S(=O)(=O)Nc1ccc(F)c(CCc2cnc3n2CCOC3)c1F` [Compound 5, 5-chloro-N-[2,4-difluoro-3-(2-[5H,6H,8H-imidazo[2,1-c][1,4]oxazin-3-yl]ethyl)phenyl]-2-methoxypyridine-3-sulfonamide] the IC50 was > 1000 nM. Molecule `COc1ncc(Cl)cc1S(=O)(=O)Nc1ccc(F)c(NCc2cnc3[nH]ncc3c2)c1F` [Compound 6, 5-chloro-N-[2,4-difluoro-3-([1H-pyrazolo[3,4-b]pyridin-5-ylmethyl]amino)phenyl]-2-methoxypyridine-3-sulfonamide] has an IC50 of 50 to 500 nM. In the case of `COc1ncc(Cl)cc1S(=O)(=O)Nc1ccc(F)c(CCc2cnc3[nH]ncc3c2)c1F` [Compound 7, 5-chloro-N-[2,4-difluoro-3-(2-[1H-pyrazolo[3,4-b]pyridin-5-yl]ethyl)phenyl]-2-methoxypyridine-3-sulfonamide], the IC50 is reported as < 50 nM. `CNC(=O)c1cc(CCc2c(F)ccc(NS(=O)(=O)c3cc(Cl)cnc3OC)c2F)[nH]n1` [Compound 8, 5-[2-[3-(5-chloro-2-methoxypyridine-3-sulfonamido)-2,6-difluorophenyl]ethyl]-N-methyl-1H-pyrazole-3-carboxamide] was tested, and the IC50 was < 50 nM. In the case of `Cc1ncc(F)cc1S(=O)(=O)Nc1ccc(F)c(CCc2cnc3[nH]ncc3c2)c1F` [Compound 9, N-(3-(2-(1H-pyrazolo[3,4-b]pyridin-5-yl)ethyl)-2,4-difluorophenyl)-5-fluoro-2-methylpyridine-3-sulfonamide], the IC50 is reported as < 50 nM. In the case of `COc1ncc(C#N)cc1S(=O)(=O)Nc1ccc(F)c(CCc2cnc3[nH]ncc3c2)c1F` [Compound 10, 5-cyano-N-[2,4-difluoro-3-(2-[1H-pyrazolo[3,4-b]pyridin-5-yl]ethyl)phenyl]-2-methoxypyridine-3-sulfonamide], the IC50 is reported as < 50 nM. For `COc1ncc(Cl)cc1S(=O)(=O)Nc1ccc(F)c(CCc2ccc3[nH]ncc3n2)c1F` [Compound 11, 5-chloro-N-[2,4-difluoro-3-(2-[1H-pyrazolo[4,3-b]pyridin-5-yl]ethyl)phenyl]-2-methoxypyridine-3-sulfonamide], the IC50 was > 1000 nM. `COc1ncc(Cl)cc1S(=O)(=O)Nc1ccc(F)c(CCc2cnc3[nH]ccc3c2)c1F` [Compound 12, 5-chloro-N-[2,4-difluoro-3-(2-[1H-pyrrolo[2,3-b]pyridin-5-yl]ethyl)phenyl]-2-methoxypyridine-3-sulfonamide] was tested, and the IC50 was < 50 nM. `COc1ncc(Cl)cc1S(=O)(=O)Nc1ccc(F)c(CCc2cc3cn[nH]c3cn2)c1F` [Compound 13, 5-chloro-N-[2,4-difluoro-3-(2-[1H-pyrazolo[3,4-c]pyridin-5-yl]ethyl)phenyl]-2-methoxypyridine-3-sulfonamide] was tested, and the IC50 was > 1000 nM. In the case of `COc1ncc(Cl)cc1S(=O)(=O)Nc1ccc(F)c(COc2cnc3[nH]nc(C)c3c2)c1F` [Compound 14, 5-chloro-N-[2,4-difluoro-3-[([3-methyl-1H-pyrazolo[3,4-b]pyridin-5-yl]oxy)methyl]phenyl]-2-methoxypyridine-3-sulfonamide], the IC50 is reported as < 50 nM. `COc1ncc(F)cc1S(=O)(=O)Nc1ccc(F)c(CCc2cnc3[nH]ncc3c2)c1F` [Compound 15, N-[2,4-difluoro-3-(2-[1H-pyrazolo[3,4-b]pyridin-5-yl]ethyl)phenyl]-5-fluoro-2-methoxypyridine-3-sulfonamide] was tested, and the IC50 was < 50 nM. `N#Cc1cc(C(F)(F)F)cc(S(=O)(=O)Nc2ccc(F)c(CCc3cnc4[nH]ncc4c3)c2F)c1` [Compound 16, 3-cyano-N-[2,4-difluoro-3-(2-[1H-pyrazolo[3,4-b]pyridin-5-yl]ethyl)phenyl]-5-(trifluoromethyl)benzenesulfonamide] showed an IC50 of 50 to 500 nM. In the case of `COc1ncc(Cl)cc1S(=O)(=O)Nc1ccc(F)c(CCc2cnc3cn(C)nc3c2)c1F` [Compound 17, 5-chloro-N-[2,4-difluoro-3-(2-[2-methylpyrazolo[4,3-b]pyridin-6-yl]ethyl)phenyl]-2-methoxypyridine-3-sulfonamide], the IC50 is reported as < 50 nM. For `COc1ncc(Cl)cc1S(=O)(=O)Nc1ccc(F)c(CCc2cnc3cnn(C)c3c2)c1F` [Compound 18, 5-chloro-N-[2,4-difluoro-3-(2-[1-methylpyrazolo[4,3-b]pyridin-6-yl]ethyl)phenyl]-2-methoxypyridine-3-sulfonamide], the IC50 was < 50 nM. With `COc1ncc(Cl)cc1S(=O)(=O)Nc1ccc(F)c(CCc2ccn3cncc3c2)c1F` [Compound 19, 5-chloro-N-[2,4-difluoro-3-(2-[imidazo[1,5-a]pyridin-7-yl]ethyl)phenyl]-2-methoxypyridine-3-sulfonamide] the IC50 was > 1000 nM. With `COc1ncc(F)cc1S(=O)(=O)Nc1ccc(F)c(COc2cnc3[nH]ncc3c2C)c1F` [Compound 20, N-[2,4-difluoro-3-[([4-methyl-1H-pyrazolo[3,4-b]pyridin-5-yl]oxy)methyl]phenyl]-5-fluoro-2-methoxypyridine-3-sulfonamide] the IC50 was 50 to 500 nM. `COc1ncc(F)cc1S(=O)(=O)Nc1ccc(F)c(COc2cnc3[nH]ncc3c2)c1F` [Compound 21, N-[2,4-difluoro-3-([1H-pyrazolo[3,4-b]pyridin-5-yloxy]methyl)phenyl]-5-fluoro-2-methoxypyridine-3-sulfonamide] was tested, and the IC50 was < 50 nM. `COc1ncc(Cl)cc1S(=O)(=O)Nc1ccc(F)c(COc2cnc3[nH]ncc3c2C)c1F` [Compound 22, 5-chloro-N-[2,4-difluoro-3-[([4-methyl-1H-pyrazolo[3,4-b]pyridin-5-yl]oxy)methyl]phenyl]-2-methoxypyridine-3-sulfonamide] was tested, and the IC50 was < 50 nM. `COc1ncc(F)cc1S(=O)(=O)Nc1ccc(F)c(COc2cnc3[nH]ncc3c2OC)c1F` [Compound 23, N-[2,4-difluoro-3-[([4-methoxy-1H-pyrazolo[3,4-b]pyridin-5-yl]oxy)methyl]phenyl]-5-fluoro-2-methoxypyridine-3-sulfonamide] showed an IC50 of 50 to 500 nM. For `COc1ncc(Cl)cc1S(=O)(=O)Nc1ccc(F)c(COc2cnc3[nH]ncc3c2OC)c1F` [Compound 24, 5-chloro-N-[2,4-difluoro-3-[([4-methoxy-1H-pyrazolo[3,4-b]pyridin-5-yl]oxy)methyl]phenyl]-2-methoxypyridine-3-sulfonamide], the IC50 was < 50 nM. With `COc1ncc(Cl)cc1S(=O)(=O)Nc1ccc(F)c(C(C)Oc2cnc3[nH]ncc3c2)c1F` (centres unmarked) [Compound 25, 5-chloro-N-[2,4-difluoro-3-(1-[1H-pyrazolo[3,4-b]pyridin-5-yloxy]ethyl)phenyl]-2-methoxypyridine-3-sulfonamide] the IC50 was 500 to 1000 nM. For `COc1ncc(C#N)cc1S(=O)(=O)Nc1ccc(F)c(COc2cnc3[nH]ncc3c2)c1F` [Compound 26, 5-cyano-N-[2,4-difluoro-3-([1H-pyrazolo[3,4-b]pyridin-5-yloxy]methyl)phenyl]-2-methoxypyridine-3-sulfonamide], the IC50 was < 50 nM. With `COc1ncc(F)cc1S(=O)(=O)Nc1ccc(F)c(COc2cnc3[nH]ncc3c2C#N)c1F` [Compound 27, N-[3-[([4-cyano-1H-pyrazolo[3,4-b]pyridin-5-yl]oxy)methyl]-2,4-difluorophenyl]-5-fluoro-2-methoxypyridine-3-sulfonamide] the IC50 was < 50 nM. In the case of `COc1ncc(Cl)cc1S(=O)(=O)Nc1ccc(F)c(COc2cnc3[nH]ncc3c2C#N)c1F` [Compound 28, 5-chloro-N-[3-[([4-cyano-1H-pyrazolo[3,4-b]pyridin-5-yl]oxy)methyl]-2,4-difluorophenyl]-2-methoxypyridine-3-sulfonamide], the IC50 is reported as < 50 nM. For `COc1ncc(Cl)cc1S(=O)(=O)Nc1ccc(F)c(C(C)Nc2cnc3[nH]ncc3c2)c1F` (centres unmarked) [Compound 29, 5-chloro-N-[2,4-difluoro-3-(1-[1H-pyrazolo[3,4-b]pyridin-5-ylamino]ethyl)phenyl]-2-methoxypyridine-3-sulfonamide], the IC50 was > 1000 nM.
